From PMC9783881, “Synthesis and Preclinical Evaluation of Small-Molecule Prostate-Specific Membrane Antigen-Targeted Abiraterone Conjugate” (Molecules, 2022) come the findings set out here.

Structures are written as SMILES.

The nature of the data set: Pharmacokinetics in rats. The data set is classed as in vivo. The method, then:
The pharmacokinetic parameters were studied for healthy, outbred, adult, male, albino rats (Wistar) about 3 months old weighing 190–210 g. The experiment included 3 rats for preparation. The formulation of conjugate PSMA-Abi was the same as for the acute toxicity evaluation. Administration dose was 1000 mg/kg.
Blood samples were taken from the tail vein of rats in a volume of 0.2 mL in polyethylene micro-tubes with a capillary up to 0.5 mL by trimming the tip of the tail. K2EDTA was used as an anticoagulant. During the study, a total of 48 blood samples from 3 animals (16 samples from each animal) were selected for PSMA-Abi.
Immediately after taking a blood sample, the tube was carefully inverted several times to mix the contents (anticoagulant). The plasma was then separated by centrifugation at 1500× g for 10 min at a temperature of +4 °C. Centrifugation was performed no later than 15 min after sampling each blood sample. The studied conjugate PSMA-Abi was determined in the blood plasma samples of rats and rabbits by high-performance liquid chromatography (Agilent 1200) with tandem mass spectrometric detection (QTrap 4500 tandem mass spectrometer) with preliminary isolation of the analyte from the biomaterial. Detailed method parameters are described in Table S6.

[1] abbreviates: single oral administration, mean.
The mark [2] stands for this setting: single peroral 1000 mg/kg, Mean ± SD.

Take `C[C@]12CC[C@H](OC(=O)CCCc3cn(CCCNC(=O)[C@H](Cc4ccc(O)cc4)NC(=O)[C@H](Cc4ccccc4)NC(=O)CCC(=O)NCCCCCC(=O)N(CCCC[C@H](NC(=O)N[C@@H](CCC(=O)O)C(=O)O)C(=O)O)Cc4cccc(Cl)c4)nn3)CC1=CC[C@@H]1[C@@H]2CC[C@]2(C)C(c3cccnc3)=CC[C@@H]12` [PSMA-Abi]: under “oral 1000 mg/kg”, the “maximum plasma concentrations, range over animals” value is 190 to 537 ng/mL; the “time plasma concentrations were detected after administration” value was “at least 72 h”; the “time to maximum plasma concentration, range over animals” value lay in the range of 1.5 to 8 h. In addition, under setting [1], the “AUC0–t” value amounted to 3791 ± 875 ng·h/mL and the “AUC0–∞” value was determined as 4623 ± 1260 ng·h/mL. In addition, the maximum concentration (Cmax) (as a rule, the peak of the concentration-time curve) (single peroral 1000 mg/kg, 1% starch suspension, Mean ± SD) was found to be 318 ± 190 ng/mL. For the same compound, under setting [2], the “AUC0–t” value is 3791 ± 875 ng·h/mL, the “AUC0–∞” value was 4623 ± 1260 ng·h/mL, the “AUCt–∞/AUC0–∞” value came out at 21 ± 5% and the Kel is 0.023 ± 0.006 h⁻¹. In addition, under setting [2], the “MRT0–t” value worked out at 27.2 ± 1.7 h and the “T1/2 (elimination half-life)” value is listed as 31.3 ± 8.7 h. The Tmax (usually the time from dosing to the highest level) (single peroral 1000 mg/kg, mean) is reported as 3.8 h.
